From PubChem BioAssay (NCI) come the findings set out here.

SMILES strings stand for the structures. “And” between values parts separate entries of the source, which are not always exact repeats. Equal entries are not always repeated.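 Each compound was tested at five concentrations against cells in 96-well plates for 48 hours. GI50 is the concentration that inhibits growth by half. At the TGI there is no net growth.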

Holding throughout (assay): inhibition of tumour cell growth, NCI panel, 48 h
The subject of assay [1] is BT-549 breast.
Assay [2] has as its system MCF7 breast.
Assay [3] relates to LXFL 529 NSCLC.
The test system of assay [4] is DLD-1 colon.
Assay [5] concerns DU-145 prostate.
Assay [6] has as its system HS 578T breast.
Assay [7] has as its system M19-MEL melanoma.
Assay [8] deals with DMS 114 small cell lung.
The test system of assay [9] is T-47D breast.
Assay [10] concerns DMS 273 small cell lung.
Assay [11] concerns NCI/ADR-RES ovarian.
Assay [12] relates to PC-3 prostate.

In the case of `CN(C)c1ccc(/C=C2\C[N+](C)(C)C/C(=C\c3ccc(N(C)C)cc3)C2=O)cc1`, the TGI in assay [1] was 34.3 µM; in [2], 30.5 µM; in assay [3], 20.4 µM; in assay [4], over 100 µM; in assay [5] it was over 100 µM; in [6], over 100 µM. Also, the TGI stood at 30.3 µM in assay [7], 26.1 µM in assay [8], 46.6 µM in assay [9] and 18.5 µM in [10].
As for `O=c1c(Cl)c(Cl)cnn1-c1ccccc1`, the TGI in assay [1] is 3.12 µM and 3.19 µM; in [2] it was 18.9 µM and 13.6 µM; in [11] it was 3.97 µM; in assay [3] it was 11.9 µM and 3.13 µM; in assay [4] it was 2.84 µM and 5.22 µM; in [12] it was 12 µM and 3.23 µM. For the same compound, the TGI in assay [5] was 28 µM and 27.8 µM; in assay [6], 7.02 µM and 20.3 µM; in assay [7], 11.7 µM and 8.03 µM; in assay [8], 5.76 µM and 3.09 µM; in assay [9] it was 16.4 µM and 5.04 µM; in assay [10], 3.94 µM and 12.4 µM. The GI50 in [12] is 5.42 µM and 1.77 µM; in [10], 2.03 µM and 5.59 µM.
On to `COc1cc2c(c(O)c1C)C(=O)C(Cl)=CC2=O`, for which the TGI stood at 18.4 µM in assay [1]; 15.8 µM in assay [2]; 66.7 µM in assay [11]; 19.4 µM in assay [3]; 48.5 µM in assay [4]; 28.7 µM in assay [12]. Moreover, the TGI came out at 13.3 µM in assay [5]; 97.4 µM in [6]; 20.9 µM in [7]; 32.8 µM in [8]; 5.22 µM in assay [9]; 34.5 µM in assay [10].
On to `CN(C)CCNC(=O)c1cccc2nc3c(Cl)cccc3nc12`, for which the TGI in assay [3] was over 49.5 µM; in assay [4] it was 42.2 µM; in assay [7] it was 13.1 µM; in [8], 12.1 µM; in assay [10], over 100 µM.
